# Key:
# [1] = pH value of 5-9; cited from earlier work
# rabbit = settings: cited from earlier work
# Rhizoctonia solani = test: Hypha growth inhibition, toxicity determination for Rhizoctonia solani; type: cell-based; settings: PDA medium, 25° C.
# Protocol: (§1) Fungicidal properties of Thifluzamide and Ipconazole were analyzed in detail.
# (§2) Test targets were Rhizoctonia solani and Sclerotium rolfsii, but not limited herein. […] Hypha blocks having a diameter of 5 mm were made on the edges of pre-culture colonies by a sterilized puncher and respectively transferred onto different medium plates for culturing at 25° C. A hypha growth measurement method was adopted in the test to prepare drug-containing media according to different treatments; the hypha blocks having the diameter of 5 mm were made on the edges of pre-culture colonies by the sterilized puncher and respectively transferred onto medium plates having different drug contents; a colony diameter was measured by a crossing method; the colony diameter (mm) was measured; and a growth inhibition ratio was calculated by the following formulas: […]
# (§3) The hypha growth inhibition ratio was converted into an inhibition probability value (y); the agent concentration was converted into a concentration logarithm (x); a toxic regression line was drawn by taking the concentration logarithm as a horizontal coordinate and taking the probability value as a vertical coordinate; a toxic regression equation of the single agents such as the Thfiluzamide and Ipconazole and a mixture thereof for pathogenic bacteria was solved; and the EC50 value and a related ratio r were calculated. […]
# Sclerotium rolfsii = test: Hypha growth inhibition, toxicity determination for Sclerotium rolfsii; type: cell-based; settings: PDA medium, 25° C.
# Protocol: as §1, §2, §3
SMILES,stability [1],acute dermal LD50 (rabbit) [mg/kg],EC50 ppm (Rhizoctonia solani) [ppm],EC50 ppm (Sclerotium rolfsii) [ppm]
"Cc1nc(C(F)(F)F)c(C(=O)Nc2c(Br)cc(OC(F)(F)F)cc2Br)s1 [Thifluzamide, 2′,6′-dibromo-2-methyl-4′-trifluoromethoxy-4-trifluoromethyl-1,3-thiadiazole-5-hydroxyanilide]",stable,> 2000,0.154,0.1258
"CC(C)C1CCC(Cc2ccc(Cl)cc2)C1(O)Cn1cncn1 (stereo not drawn) [Ipconazole, (1RS, 2SR, 5RS; 1RS, 2SR, 5 SR)-2-(4-chlorobenzyl)-5-isopropyl-1-(1H-1,2,4-triazole-1-ylmethyl) cyclopentanol]",,,0.0217,0.0327

# — patent US20230157292A1, “SEED COATING FORMULA FOR CONTROLLING SOYBEAN SOUTHERN BLIGHT AND SOYBEAN SHEATH BLIGHT” (Institute of Plant Protection and Agro-products Safety, …, priority 2022, published 2023)
